The values that follow come from patent EP2444396A1, “PHOTOPROTECTIVE COMPOSITION” (Apoteknos Para La Piel, S.L., priority 2009, dated 2010).

Several values for one entry are separate records, joined by “and”; a condition that tells them apart may be missing. Identical values can stand only once. Marks after values point to notes of the source that are not given here.

For series [1], the target named is T1, ERβ (Homo sapiens, UniProt Q92731).
T1 construct: expressed in transfected cells; host or cells: HeLa (HELN-ERβ)
Briefly: Estrogenicity reporter gene bioassay (luciferase activity) in HELN-ERβ cells. The class given is cell-based. The source says:
Briefly, the transactivation bioassay (Reporter gene assay) used are based on the use of breast and uterine cancer cell lines transfected with different native or modified hormone receptors. The resulting cell lines further contain a reporter gene regulated by estrogens through the estrogen response element, the globin promoter and the luciferase gene.
HELN-ERα and HELN-ERβ cell lines were obtained by means of transfecting the HeLa uterine cancer cell line. In a first phase, said cells were transfected with an estrogen sensitive response element and then with the estrogen receptor alpha or beta (ERα or ERβ). The selection of clones resistant to geneticin and puromycin was performed using a concentration of 1 mg/mL and 0.5 mg/mL, respectively. The maintenance medium as well as the experimental medium of these 2 cell lines is DMEM F12 without phenol red supplemented with 6% of FBS (lacking of estrogens), 1% of penicillin / streptomycin, 1 mg/mL of geneticin and 0.5 µg/mL of puromycin.
The cells were seeded at a density of 5x10^4 cells per well in white opaque 96 well plates in 150 µL of experimental medium. After 8 hours, the compounds to be assayed (p-nitrolophine and estradiol) were prepared (concentrated 4x) in the same medium and were added to each well (50 µl). The cells were incubated for 16 hours at 37°C. At the end of the incubation, the medium was removed and replaced with fresh medium containing […] luciferin [at that concentration, luciferin diffuses into cell producing a luminescent signal which is stable after 5 minutes and for at least 2 hours]. The plates were then introduced in the luminometer to measure the luminescence for 2 seconds. A YicroBeta Trilux luminometer (EGG Wallac) apparatus was used to detect luciferase activity.
The assays were preformed in quadruple for each concentration (0.01-10 µM) in at least three independent experiments. […] The values of luciferase activity obtained were analyzed using the one-way ANOVA statistic test. The differences were considered significant when P was less than […] (P < 0.05).
A general note: Reporter assays use an easily measured gene product as a stand-in for the process of interest.

The test system of series [2] is MCF-7 breast cancer cell line. Briefly: E-Screen cell proliferation test. Format: cell-based, human. The note with it: MCF-7 cells, over control. From the text: The E-Screen proliferation test is based on the use of MCF-7 breast cancer cell line. The MCF-7 cells [which endogenously expressed the estrogen receptor alpha (ERα)], respond to the treatment with estradiol increasing its proliferative rate, synthesizing new proteins and transcribing certain specific genes. […] The test compares the number of cells or the cell proliferation obtained after 6 days of culture. The cells grow in culture medium supplemented with human serum lacking of estrogens, in the presence and/or absence of estradiol as well as of the chemical compounds suspected of having estrogenic activity. The E-Screen test was performed following the methodology previously described by Soto et al. ["An in culture bioassay to assess the estrogenicity of xenobiotics. […] Health Perspect. 103:844-850; 1995]. […] The assay was ended after 144 hours of subculture (exponential phase) after drawing out the medium and fixing the cells for the application of sulforhodamine-B technique. Finally, the cell growth for each experimental group is related to the growth obtained for the negative control (absence of hormone) and with respect to estradiol (positive control). Once the E-Screen test is performed, the maximum cell proliferation rate induced by the compound also known as proliferative effect (PE) was established by calculating the ratio existing between the maximum proliferation rate obtained for the compound and the proliferation rate of the negative control. The proliferation data corresponding with the successive dilutions of the compound were transformed after the application of the correction factor for the dilution of each experimental point, the arithmetic mean of the data obtained being calculated. Another parameter is the relative proliferative efficiency (RPE). […] In this assay, the estrogenicity E-Screen test commonly used to identify the hormonal activity of compounds interacting specifically with the estrogen receptor alpha (ERα), has been used. The assays were performed in triplicate for each concentration (range: 300-0.003 µg/ml) in at least three independent experiments.

Series [3] concerns MCF-7 breast cancer cell line. Briefly: E-Screen cell proliferation test. The class given is cell-based, human. Also noted: dose or concentration left out as unconfirmed. As to conditions: 144 h.
Series [4] has as its system Erythema induced by UVB radiation in mouse. Briefly: Photoprotection: erythema induced by UVB radiation in mouse skin. Format: in vivo. Also on record: key to Erythema induced by UVB radiation in mouse: presence (+); absence (-). As to conditions: individual animals No. 1-10; 0.5% gel topical, about 2.5 kJ/m^2 UVB, 24 hours after exposure. The source says:
The effect of p-nitrolophine and m-nitrolophine on erythema due to exposing the mouse skin to an irradiation source at maximum in the UVB region has been studied in these assays. The results obtained have been compared with the effect of 4-methylbenzylidene camphor (P5000) a substance considered as a UVB solar filter and with the effect of butyl methoxydibenzoylmethane (P1789) an UVA type filter, both products being commonly used in antisolar cosmetics.
35 male mice weighing more than 20 grams have been used. After receiving them, the animals were acclimated for 7 days at the place where the assays were preformed, they were being placed in a cage with controlled temperature (22°C), with relative humidity between 50% and 75%, replacing fresh filtered air approximately 10 times per hour and with 12 h light/dark cycles (7.00 - 19.00 light and from 19.00 to 7.00 dark). For this period and during the experimental period, the animals were fed ad libitum with standard diet for rodents and running water as drink.
The animals were randomly distributed into 4 experimental groups according to Table 7. The products to be tested were directly used, applying them in the form of a gel on an area of the skin such that each animal form its own control.
The test was performed following the method described by Winder et al. ["A study of Pharmacological influences on ultraviolet erythema in guinea pigs". Arch. Int Pharmacodyn, 116:261-292; 1958] and by other authors [Wendy et al. "The local antinociceptive and topical antiinflamatory effects of propyl gallate in rodents". Br. J. Pharmacol, 58:573 -581; 1976; Katiyar et al. "Protective Effects of Silymarin Against Photocarcinogenesis in a Mouse Skin Model". J Natl Cancer Inst 89:556-65; 1997] with slight modifications. The day […] the assay, as much hair as possible were removed from the animals by applying a layer of commercial hair-removing cream to remove all the trace of hair and to leave the skin of the back completely bare. The rest of the hair-removing cream were removed by means of washing and rinsing with running water and the animals were the returned to their corresponding cages where they remained until the following day.
On the day of the assay, the substances to be assayed were blindly applied on the back of the previously labelled animals following a random pattern (randomized). After applying the corresponding treatments, the animals were placed and pinned to the presentation platform of the equipment. The animals were then placed 8 cm from an ultraviolet light source of 4*40w with 313 nm of fundamental emission and a range comprised approximately between 290 and 350 nm and with an anti-UVC filter. The emission spectrum of said light source is depicted in Figure 1.
The exposure was maintained until all the animals have received an approximate total dose of 2.5 kJ/m^2. The dose of irradiation applied was determined by means of a ultraviolet light detector, the response curve of which is shown in Figure 2.
Twenty four hours after ending the exposure, the back of the animals was photographed and they were returned to their cages. The evaluation of erythema was performed by means of a positive/negative criterion, the percentage of protected animals being obtained. The statistic significance of the difference was evaluated by means of the non-parametric Fisher Test.

The nature of series [5]: Absorption spectrum in methanol (195 - 400 nm). The class given is physicochemical. As to conditions: peak wavelength, 10 mg/ml. As to the method: In order to determine the absorption spectrum, a solution of 10 mg/ml of methanol was prepared from each of the substances. The methanol in turn was used to adjust the zero absorbance in each of the wavelengths in the range of 195 - 400 nm.

For series [6], the system named is inflammation induced by phorbol 12-myristate-13-acetate (PMA). Kind of series: Topical anti-inflammatory activity: ear inflammation induced by PMA in mice. Also noted: RE / RE Average: unit not given here. As to conditions: 4 hours. The class given is in vivo. The procedure:
The topical anti-inflammatory activity of p-nitrolophine has been analyzed in this study since erythema is a inflammatory process. Specifically, the inhibition of inflammation induced by phorbol 12-myristate-13-acetate (PMA) was evaluated and compared with an anti-inflammatory product of reference (indometacin). 37 mice were divided into the following groups: positive control group (PMA 0.5 mg); negative control group (indometacin 0.5 mg); treated groups (0.5 mg and 1 mg of p-nitrolophine). All the solutions were prepared using acetone (ppa) as vehicle. 20 µL of solution of 25 mg/mL of phorbol 12-myristate-13-acetate (PMA) [Fluka cod 79346] (10 µL in each face) was administered in the right ear of each mouse. Immediately after administering the PMA, nothing more was administered into the positive control group; 20 µL of the solution of 25 mg/mL of indometacin was administered to the negative control group, and 20 µL of the solution of 25 or 50 mg/mL of 4-nitrolophine was administered in the same manner to the treated groups. Animals having no lesions or skin and ear irritation were used.
After 4 hours of post-treatment, the mice were sacrificed through cervical fracture and a portion of 6 mm in diameter was obtained from each ear with a hollow punch which was weight in precision analytical balance. The difference in weight (Δ) between the right ear (treated) and the left ear (non treated) for each animal and for each group were calculated. The percentage of inhibition (% inh) was estimated and calculated according to the following equation: % inh = 100(1-Δt/Δc) [formula] wherein Δt represents the difference in the treated groups and Δc the difference for the […].
In order to analyze the results, an one way ANOVA and Dunnet test for multiple comparison was used, values of P<0.05 were considered significant. A software, Graphpad Instat Version 3.06, was used for such purposes.

T1 sequence (Q92731 whole entry, species assumed): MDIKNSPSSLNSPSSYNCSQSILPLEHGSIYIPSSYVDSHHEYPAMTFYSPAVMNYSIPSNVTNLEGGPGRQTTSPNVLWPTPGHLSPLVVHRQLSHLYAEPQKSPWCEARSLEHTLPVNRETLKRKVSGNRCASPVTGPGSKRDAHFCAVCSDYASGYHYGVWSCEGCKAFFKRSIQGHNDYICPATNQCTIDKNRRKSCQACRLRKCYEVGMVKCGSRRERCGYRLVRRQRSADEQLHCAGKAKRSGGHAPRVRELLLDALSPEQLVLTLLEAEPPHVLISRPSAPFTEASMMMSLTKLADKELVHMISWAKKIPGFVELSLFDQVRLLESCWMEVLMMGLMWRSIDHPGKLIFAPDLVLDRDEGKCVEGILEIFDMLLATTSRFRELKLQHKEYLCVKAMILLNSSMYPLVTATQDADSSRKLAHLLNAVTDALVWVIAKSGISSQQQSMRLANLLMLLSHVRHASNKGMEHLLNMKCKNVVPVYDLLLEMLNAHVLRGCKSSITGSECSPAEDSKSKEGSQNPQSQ

In the case of `C[C@]12CC[C@@H]3c4ccc(O)cc4CC[C@H]3[C@@H]1CC[C@@H]2O` [E2, 17β-estradiol, reference compound], the activity at 0.01 µM in series [1] is 100%. Further, the “maximum cell proliferation rate” value in series [2] is recorded as “about 6.2 ± 0.3”. The “Proliferative effect (PE) Mean” value in series [3] is listed as 6, 62*.
Take `Cc1ccc(C=C2C(=O)C3(C)CCC2C3(C)C)cc1` (centres unmarked) [P5000, 4-methylbenzylidene camphor, reference compound]: the “Erythema induced by UVB radiation in mouse” value in series [4] is given as “-”. In series [5], this compound gave a maximum absorption of 295 nm.
For `COc1ccc2c(c1)c(CC(=O)O)c(C)n2C(=O)c1ccc(Cl)cc1` [Indometacin, reference compound], in series [6], the “% inhibition” value is given as 87.7** (q = 7.6) %. Moreover, in series [6] (Dose (mg/ear) 0.5), the “Average (Δ = RE - LE)” value was determined as 0.61. The “LE Average” value in series [6] (left ear (non treated), group average, 0.5 mg group) is listed as 6.7. The “RE Average” value in series [6] (right ear (treated), group average, 0.5 mg) is 7.4. Besides, the LE in series [6] (weight of 6 mm portion of left ear (non treated), individual mice, 0.5 mg group) is 6.2 and 6.4 and 6.9 (2×) and 6.7 (3×) and 7.6 and 5.5 and 7.2. The RE in series [6] (weight of 6 mm portion of right ear (treated), individual mice, 0.5 mg) was 6.7 and 7.2 (2×) and 6.8 (2×) and 10 and 6.2 (2×) and 7.4 and 9.1.
